Experiments:
Format in all cases: in vivo
[1] = test system: Digitaria ciliaris; experiment: Farming soil treatment test; conditions: soil surface spray prior to weed growth, 30 days, 30° C.
Protocol: (§1) 2. Farming Soil Treatment Test
(§2) Field soil was filled into a 1/6000 are pot followed by seeding with Digitaria ciliaris, Chenopodium album and Amaranthus retroflexus and covering with soil.
(§3) Wettable powders of compounds of formula (I) shown in Table 1 prepared in compliance with the preparation examples were diluted with water to the prescribed amount of chemical and uniformly sprayed onto each soil surface layer using 100 liters of sprayed water per 10 are prior to weed growth following seeding.
(§4) After treating for 30 days in a glass greenhouse at an average atmospheric temperature of 30° C., the herbicidal efficacy thereof was investigated.
(§5) Evaluation of herbicidal efficacy was carried out in the same manner as the above-mentioned Test Example 1.

[2] = test system: Amaranthus retroflexus; experiment: Farming soil treatment test; conditions: soil surface spray prior to weed growth, 30 days, 30° C.
Protocol: as §1, §2, §3, §4, §5

[3] = test system: Chenopodium album; experiment: Farming soil treatment test; conditions: soil surface spray prior to weed growth, 30 days, 30° C.
Protocol: as §1, §2, §3, §4, §5

[4] = test system: Digitaria ciliaris; experiment: Weed foliar treatment test (Test 4, 4.0 to 5.0 leaf stage); conditions: 10g a.i./10a; foliar spray at 4.0 to 5.0 leaf stage of Digitaria ciliaris (plant height 10 cm to 15 cm); 20 days, 25° C.
Protocol: (§6) 4. Weed Foliar Treatment Test
(§7) Field soil was filled into a 1/4500 are pot followed by seeding with Digitaria ciliaris and Galinsoga parviflora, covering with soil and cultivating in a glass greenhouse at an average atmospheric temperature of 25° C.
(§8) Wettable powders of Target Compound (I) shown in Table 1 prepared in compliance with the preparation examples were diluted with water to the prescribed amount of chemical and uniformly sprayed onto the weeds using 100 liters of sprayed water per 10 are when Digitaria ciliaris had grown to the 4.0 to 5.0 leaf stage (plant height: 10 cm to 15 cm).
(§9) After treating for 20 days in a glass greenhouse at an average atmospheric temperature of 25° C., the herbicidal efficacy thereof was investigated.
as §5

[5] = test system: Galinsoga parviflora; experiment: as above; conditions: 10g a.i./10a; foliar spray at 4.0 to 5.0 leaf stage of Digitaria ciliaris; 20 days, 25° C.
Protocol: as §6, §7, §8, §9, §5

[6] = test system: Oryza sativa; experiment: Paddy herbicidal activity test, phytotoxicity to transplanted rice; conditions: rice transplanted at 2.0 leaf stage, 30 days, 30° C.
Protocol: (§10) 1. Paddy Herbicidal Activity Test
(§11) Rice paddy soil was filled into a 1/10000 are pot followed by the addition of suitable amounts of water and chemical fertilizer, kneading, seeding with Echinochloa crus-galli, Monochoria vaginalis and Scirpus juncoides and maintaining in an irrigated state at a water depth of 3 cm.
(§12) Wettable powders of Target Compound (I) shown in. Table 1 prepared in compliance with the preparation examples were diluted with a suitable amount of water, rice plants in the 2.0 leaf stage were transplanted during 3.5 leaf stage of Echinochloa crus-galli, and treated by dropping in chemical in the prescribed amount per 10 are using a pipette.
as §4
(§13) Evaluation of herbicidal efficacy was carried out by comparing growth inhibition rate (%) with an untreated group, while evaluation of phytotoxicity was carried out by comparing growth inhibition rate (%) with the state of a complete eradication group, and were evaluated at 11 levels indicated below.

[7] = test system: Scirpus juncoides; experiment: Paddy herbicidal activity test; conditions: irrigated paddy pot, 30 days, 30° C.
Protocol: as §10, §11, §12, §4, §13

[8] = test system: Echinochloa crus-galli; experiment: Paddy herbicidal activity test; conditions: irrigated paddy pot, treated at 3.5 leaf stage of Echinochloa crus-galli, 30 days, 30° C.
Protocol: as §10, §11, §12, §4, §13

[9] = test system: Monochoria vaginalis; experiment: Paddy herbicidal activity test; conditions: irrigated paddy pot, 30 days, 30° C.
Protocol: as §10, §11, §12, §4, §13

[10] = test system: Digitaria ciliaris; experiment: Weed foliar treatment test (Test 3, 1.0 to 2.0 leaf stage); conditions: foliar spray at 1.0 to 2.0 leaf stage of Digitaria ciliaris, 3 weeks, 25° C.
Protocol: (§14) 3. Weed Foliar Treatment Test
(§15) Soil was filled into a 1/6000 are pot followed by seeding with Digitaria ciliaris, Chenopodium album and Amaranthus retroflexus, covering with soil, and cultivating in a glass greenhouse at an average atmospheric temperature of 25° C.
as §8, with “150” for “100”, “1.0” for “4.0”, “2.0” for “5.0”, “stage.” for “stage (plant height: 10 cm to 15 cm).”
(§16) After treating for 3 weeks in a glass greenhouse at an average atmospheric temperature of 25° C., the herbicidal efficacy thereof was investigated.
as §5

[11] = test system: Amaranthus retroflexus; experiment: as above; conditions: foliar spray at 1.0 to 2.0 leaf stage of Digitaria ciliaris, 3 weeks, 25° C.
Protocol: as §14, §15
as §8, with “150” for “100”, “1.0” for “4.0”, “2.0” for “5.0”, “stage.” for “stage (plant height: 10 cm to 15 cm).”
as §16, §5

[12] = test system: Chenopodium album; experiment: as above; conditions: foliar spray at 1.0 to 2.0 leaf stage of Digitaria ciliaris, 3 weeks, 25° C.
Protocol: as §14, §15
as §8, with “150” for “100”, “1.0” for “4.0”, “2.0” for “5.0”, “stage.” for “stage (plant height: 10 cm to 15 cm).”
as §16, §5

Row | SMILES | herbicidal efficacy, Digitaria ciliaris ([1]; 5g a.i./10a) | herbicidal efficacy, Digitaria ciliaris ([1]; 10g a.i./10a) | herbicidal efficacy, Amaranthus retroflexus ([2]; 5g a.i./10a) | herbicidal efficacy, Amaranthus retroflexus ([2]; 10g a.i./10a) | herbicidal efficacy, Chenopodium album ([3]; 5g a.i./10a) | herbicidal efficacy, Chenopodium album ([3]; 10g a.i./10a) | herbicidal efficacy, Digitaria ciliaris [4] | herbicidal efficacy, Galinsoga parviflora [5] | further results
1 | CN(C(=O)CC1CC1)c1c(C#N)cnn1-c1nn2c(c1Cl)CCCC2 [Compound 1, Methyl N-(1-(3-chloro-4,5,6,7-tetrahydropyrazolo[1,5-a]pyridin-2-yl)4-cyanopyrazol-5-yl)-2-cyclopropyl Acetoamide] | 9 (9: 90% to less than 100%) | 10 (10: 100%) | 10 (10: 100%) | 10 (10: 100%) | 10 (10: 100%) | 10 (10: 100%) |  |  | 
2 | O=C(Nc1c([N+](=O)[O-])cnn1-c1nn2c(c1Cl)CCCC2)C1CC1 [Compound 2] | 9 (9: 90% to less than 100%) | 9 (9: 90% to less than 100%) | 10 (10: 100%) | 10 (10: 100%) | 9 (9: 90% to less than 100%) | 9 (9: 90% to less than 100%) | 10 (10: 100%) | 10 (10: 100%) | phytotoxicity, Oryza sativa ([6]; 1g a.i./10a): 1 (1: 10% to less than 20%); phytotoxicity, Oryza sativa ([6]; 5g a.i./10a): 1 (1: 10% to less than 20%); herbicidal efficacy, Scirpus juncoides ([7]; 1g a.i./10a): 9 (9: 90% to less than 100%); herbicidal efficacy, Scirpus juncoides ([7]; 5g a.i./10a): 9 (9: 90% to less than 100%); herbicidal efficacy, Echinochloa crus-galli ([8]; 1g a.i./10a): 10 (10: 100%); herbicidal efficacy, Echinochloa crus-galli ([8]; 5g a.i./10a): 10 (10: 100%); herbicidal efficacy, Monochoria vaginalis ([9]; 1g a.i./10a): 10 (10: 100%); herbicidal efficacy, Monochoria vaginalis ([9]; 5g a.i./10a): 10 (10: 100%); herbicidal efficacy, Digitaria ciliaris ([10]; 5g a.i./10a): 10 (10: 100%); herbicidal efficacy, Digitaria ciliaris ([10]; 10g a.i./10a): 10 (10: 100%); herbicidal efficacy, Amaranthus retroflexus ([11]; 5g a.i./10a): 10 (10: 100%); herbicidal efficacy, Amaranthus retroflexus ([11]; 10g a.i./10a): 10 (10: 100%); herbicidal efficacy, Chenopodium album ([12]; 5g a.i./10a): 10 (10: 100%); herbicidal efficacy, Chenopodium album ([12]; 10g a.i./10a): 10 (10: 100%)
3 | CC1(C(=O)Nc2c(C#N)cnn2-c2nn3c(c2Cl)CCCC3)CC1 [Compound 3] |  |  |  |  |  |  | 10 (10: 100%) | 10 (10: 100%) | 
4 | N#Cc1cnn(-c2nn3c(c2Cl)CCCC3)c1NC(=O)C1CCC1 [Compound 4] |  |  |  |  |  |  | 10 (10: 100%) | 10 (10: 100%) | 
5 | N#Cc1cnn(-c2nn3c(c2Cl)CCCC3)c1NC(=O)C1CCCC1 [Compound 5] |  |  |  |  |  |  | 10 (10: 100%) | 10 (10: 100%) | 
6 | O=C(Nc1c([N+](=O)[O-])cnn1-c1nn2c(c1Cl)CCCC2)C1CCCC1 [Compound 6] | 9 (9: 90% to less than 100%) | 9 (9: 90% to less than 100%) | 10 (10: 100%) | 10 (10: 100%) | 9 (9: 90% to less than 100%) | 9 (9: 90% to less than 100%) | 9 (9: 90% to less than 100%) | 10 (10: 100%) | phytotoxicity, Oryza sativa ([6]; 1g a.i./10a): 0 (0 (exponent): 0% to less than 10% (growth inhibition rate)); phytotoxicity, Oryza sativa ([6]; 5g a.i./10a): 1 (1: 10% to less than 20%); herbicidal efficacy, Scirpus juncoides ([7]; 1g a.i./10a): 9 (9: 90% to less than 100%); herbicidal efficacy, Scirpus juncoides ([7]; 5g a.i./10a): 9 (9: 90% to less than 100%); herbicidal efficacy, Echinochloa crus-galli ([8]; 1g a.i./10a): 10 (10: 100%); herbicidal efficacy, Echinochloa crus-galli ([8]; 5g a.i./10a): 10 (10: 100%); herbicidal efficacy, Monochoria vaginalis ([9]; 1g a.i./10a): 10 (10: 100%); herbicidal efficacy, Monochoria vaginalis ([9]; 5g a.i./10a): 10 (10: 100%); herbicidal efficacy, Digitaria ciliaris ([10]; 5g a.i./10a): 10 (10: 100%); herbicidal efficacy, Digitaria ciliaris ([10]; 10g a.i./10a): 10 (10: 100%); herbicidal efficacy, Amaranthus retroflexus ([11]; 5g a.i./10a): 10 (10: 100%); herbicidal efficacy, Amaranthus retroflexus ([11]; 10g a.i./10a): 10 (10: 100%); herbicidal efficacy, Chenopodium album ([12]; 5g a.i./10a): 10 (10: 100%); herbicidal efficacy, Chenopodium album ([12]; 10g a.i./10a): 10 (10: 100%)
7 | N#Cc1cnn(-c2nn3c(c2Cl)CCCC3)c1NC(=O)C1CCCCC1 [Compound 7] |  |  |  |  |  |  | 10 (10: 100%) | 10 (10: 100%) | 
8 | O=C(CC1CC1)Nc1c([N+](=O)[O-])cnn1-c1nn2c(c1Cl)CCCC2 [Compound 8] | 9 (9: 90% to less than 100%) | 10 (10: 100%) | 10 (10: 100%) | 10 (10: 100%) | 10 (10: 100%) | 10 (10: 100%) | 9 (9: 90% to less than 100%) | 10 (10: 100%) | phytotoxicity, Oryza sativa ([6]; 1g a.i./10a): 0 (0 (exponent): 0% to less than 10% (growth inhibition rate)); phytotoxicity, Oryza sativa ([6]; 5g a.i./10a): 0 (0 (exponent): 0% to less than 10% (growth inhibition rate)); herbicidal efficacy, Scirpus juncoides ([7]; 1g a.i./10a): 9 (9: 90% to less than 100%); herbicidal efficacy, Scirpus juncoides ([7]; 5g a.i./10a): 10 (10: 100%); herbicidal efficacy, Echinochloa crus-galli ([8]; 1g a.i./10a): 9 (9: 90% to less than 100%); herbicidal efficacy, Echinochloa crus-galli ([8]; 5g a.i./10a): 10 (10: 100%); herbicidal efficacy, Monochoria vaginalis ([9]; 1g a.i./10a): 10 (10: 100%); herbicidal efficacy, Monochoria vaginalis ([9]; 5g a.i./10a): 10 (10: 100%); herbicidal efficacy, Digitaria ciliaris ([10]; 5g a.i./10a): 9 (9: 90% to less than 100%); herbicidal efficacy, Digitaria ciliaris ([10]; 10g a.i./10a): 10 (10: 100%); herbicidal efficacy, Amaranthus retroflexus ([11]; 5g a.i./10a): 10 (10: 100%); herbicidal efficacy, Amaranthus retroflexus ([11]; 10g a.i./10a): 10 (10: 100%); herbicidal efficacy, Chenopodium album ([12]; 5g a.i./10a): 10 (10: 100%); herbicidal efficacy, Chenopodium album ([12]; 10g a.i./10a): 10 (10: 100%)
9 | N#Cc1cnn(-c2nn3c(c2Cl)CCCC3)c1NC(=O)CC1CCCC1 [Compound 29] |  |  |  |  |  |  | 10 (10: 100%) | 10 (10: 100%) | 
10 | N#Cc1cnn(-c2nn3c(c2Cl)CCCC3)c1NC(=O)CCC1CCCC1 [Compound 30] |  |  |  |  |  |  | 10 (10: 100%) | 10 (10: 100%) | 
11 | N#Cc1cnn(-c2nn3c(c2Cl)CCCC3)c1NC(=O)CCC1CC=CCC1 (centres unmarked) [Compound 31] |  |  |  |  |  |  | 10 (10: 100%) | 10 (10: 100%) | 
